Structures are written as SMILES.

We go through two molecules from patent US7060692B2, “Active ingredient combinations comprising insecticidal and acaricidal properties” (priority 2000, dated 2006).

Assay [1] relates to Myzus persicae. Briefly: Myzus test (cabbage leaves dipped). In kind it is in vivo. As to conditions: single active compound, 1.6 ppm, cabbage leaves (Brassica oleracea) dipped. How it is done:
(§1) To produce a suitable preparation of active compound, 1 part by weight of active compound is mixed with the stated amounts of solvent and emulsifier, and the concentrate is diluted with water to the desired concentrations.
Cabbage leaves (Brassica oleracea), which are heavily infested by the peach aphid (Myzus persicae) are treated by being dipped into the preparation of active compound of the desired concentration.
After the desired period of time, the kill in % is determined. 100% means that all animals have been killed; 0% means that none of the animals have been killed. The kill rates determined are calculated using Colby's formula.

Assay [2] relates to Aphis gossypii. Briefly: Aphis gossypii test (cotton leaves dipped). In kind it is in vivo. Conditions: single active compound, 1.6 ppm, cotton leaves (Gossypium hirsutum) dipped. As for the experimental part: as §1
Cotton leaves (Gossypium hirsutum), which are heavily infested by the cotton aphid (Aphis Gossypii) are treated by being dipped into the preparation of active compound of the desired concentration.
After the desired period of time, the kill in % is determined. 100% means that all aphids have been killed; 0% means that none of the aphids have been killed. The kill rates determined are calculated using Colby's formula.

For `CC[S+]([O-])CCSP(=O)(OC)OC` (centres unmarked) [oxydemeton-methyl], the “Kill rate in % after 6d” value in assay [1] turned out to be 0%. For `Cc1nc(N(C)C)nc(OC(=O)N(C)C)c1C` [pirimicarb], the “Kill rate in % after 6d” value in assay [2] was 5%.
